Assay results taken from ChEMBL document CHEMBL1147308, “Novel secoiridoid lactones from Jasminum multiflorum” (1989).
The source made the active and inactive calls. No cut-off for these calls is given here.

What was measured:
[1] = test system: Heart; assay: Cardiotropic activity in perfused guinea pig heart assessed as negative chronotropy; type: functional, tissue-based; conditions: Cavia porcellus
[2] = test system: Heart; assay: Cardiotropic activity in perfused guinea pig heart assessed as minimum effective concentration; type: functional, Cavia porcellus
[3] = test system: Heart; assay: Cardiotropic activity in perfused guinea pig heart assessed as negative ionotropy; type: functional, tissue-based; conditions: Cavia porcellus
[4] = test system: Heart; assay: Coronary dilatory activity in perfused guinea pig heart assessed as minimum effective concentration; type: functional, Cavia porcellus
[5] = test system: Heart; assay: Cardiotropic activity in perfused guinea pig heart assessed as positive ionotropy; type: functional, tissue-based; conditions: Cavia porcellus
[6] = test system: Heart; assay: Cardiotropic activity in perfused guinea pig heart assessed as positive chronotropy; type: functional, tissue-based; conditions: Cavia porcellus

**Q.** `COC(=O)C1=CO[C@@H](O)[C@H]2[C@@H]1CC(=O)OC[C@H]2OCCc1ccc(O)c(O)c1` [JASMOLACTONE A] was tested. Which Activity [1] did it give?
**A.** inactive

**Q.** And the MEC [2]?
**A.** 2.5 ×10⁻⁵ M

**Q.** What about the Activity [3] of the same molecule?
**A.** Active

**Q.** And the MEC [4]?
**A.** 1.3 ×10⁻⁵ M

**Q.** Which Activity [1] does the source give for `O=C1C[C@@H]2C(C(=O)OCCc3ccc(O)c(O)c3)=CO[C@@H](O)[C@@H]2[C@H](OCCc2ccc(O)c(O)c2)CO1` [JASMOLACTONE B] here?
**A.** inactive

**Q.** What about the MEC [2] of the same molecule?
**A.** 9.7 ×10⁻⁶ M

**Q.** And the Activity [3]?
**A.** Active

**Q.** What about the MEC [4] of the same molecule?
**A.** 4.8 ×10⁻⁶ M

**Q.** With `CC(C)NCC(O)c1ccc(O)c(O)c1` (configuration not stated) [ISOPROTERENOL] as the molecule, how does the MEC [2] read?
**A.** 4.7 ×10⁻⁸ M

**Q.** And the Activity [5]?
**A.** Active

**Q.** What about the MEC [4] of the same molecule?
**A.** 4.7 ×10⁻⁷ M

**Q.** What about the Activity [6] of the same molecule?
**A.** Active
